Experimental data reported in ChEMBL document CHEMBL1153434, “Pyridoimidazolones as novel potent inhibitors of v-Raf murine sarcoma viral oncogene homologue B1 (BRAF)” (J Med Chem, 2009).
pIC50: −log10 of the molar value.

Legend:
[1] = Growth inhibition of human WM266.4 cells expressing BRAF mutant by SRB assay; assay type: functional, cell-based; settings: WM 266-4
[2] = molecular target: Serine/threonine-protein kinase B-raf (Homo sapiens, UniProt P15056, V600E)
Description: Inhibition of BRAF V600E mutant

[3] = Metabolic stability in mouse liver microsomes assessed as drug metabolism at 10 uM; assay type: ADME, Microsome; settings: read-out: Activity
[4] = Cmax in plasma of BRAF mutant expressing WM266.4 cells xenografted Crl:CD1-Foxn1nu mouse at 2 mg/kg, iv; assay type: ADME, organism-based; design: dose 2 mg/kg, route intravenous
[5] = Cmax in tumor of BRAF mutant expressing WM266.4 cells xenografted Crl:CD1-Foxn1nu mouse at 2 mg/kg, iv; assay type: ADME, organism-based, Neoplasm; design: dose 2 mg/kg, route intravenous; settings: read-out: Cmax_tumor
[6] = AUC in plasma of BRAF mutant expressing WM266.4 cells xenografted Crl:CD1-Foxn1nu mouse at 2 mg/kg, iv; assay type: ADME, organism-based; design: dose 2 mg/kg, route intravenous
[7] = AUC in tumor of BRAF mutant expressing WM266.4 cells xenografted Crl:CD1-Foxn1nu mouse at 2 mg/kg, iv; assay type: ADME, organism-based, Neoplasm; design: dose 2 mg/kg, route intravenous
[8] = Half life in plasma of BRAF mutant expressing WM266.4 cells xenografted Crl:CD1-Foxn1nu mouse at 2 mg/kg, iv; assay type: ADME, organism-based; design: dose 2 mg/kg, route intravenous
[9] = Half life in tumor of BRAF mutant expressing WM266.4 cells xenografted Crl:CD1-Foxn1nu mouse at 2 mg/kg, iv; assay type: ADME, organism-based, Neoplasm; design: dose 2 mg/kg, route intravenous
[10] = Clearance in plasma of BRAF mutant expressing WM266.4 cells xenografted Crl:CD1-Foxn1nu mouse at 2 mg/kg, iv; assay type: ADME, organism-based; design: dose 2 mg/kg, route intravenous
[11] = Clearance in tumor of BRAF mutant expressing WM266.4 cells xenografted Crl:CD1-Foxn1nu mouse at 2 mg/kg, iv; assay type: ADME, organism-based, Neoplasm; design: dose 2 mg/kg, route intravenous; settings: in vivo
[12] = Cmax in BALB/cAnNCrl mouse plasma at 2 mg/kg, iv; assay type: ADME, organism-based; design: dose 2 mg/kg, route intravenous
[13] = Cmax in BALB/cAnNCrl mouse muscle at 2 mg/kg, iv; assay type: ADME, organism-based, Muscle tissue; design: dose 2 mg/kg, route intravenous
[14] = AUC in BALB/cAnNCrl mouse plasma at 2 mg/kg, iv; assay type: ADME, organism-based; design: dose 2 mg/kg, route intravenous
[15] = AUC in BALB/cAnNCrl mouse muscle at 2 mg/kg, iv; assay type: ADME, organism-based, Muscle tissue; design: dose 2 mg/kg, route intravenous
[16] = Half life in BALB/cAnNCrl mouse plasma at 2 mg/kg, iv; assay type: ADME, organism-based; design: dose 2 mg/kg, route intravenous
[17] = Half life in BALB/cAnNCrl mouse muscle at 2 mg/kg, iv; assay type: ADME, organism-based, Muscle tissue; design: dose 2 mg/kg, route intravenous
[18] = Clearance in BALB/cAnNCrl mouse plasma at 2 mg/kg, iv; assay type: ADME, organism-based; design: dose 2 mg/kg, route intravenous
[19] = tested on: Muscle tissue; assay: Clearance in BALB/cAnNCrl mouse muscle at 2 mg/kg, iv; assay type: ADME, organism-based; design: dose 2 mg/kg, route intravenous; settings: in vivo

Chain of Serine/threonine-protein kinase B-raf (P15056 2-766 V600E limits assumed): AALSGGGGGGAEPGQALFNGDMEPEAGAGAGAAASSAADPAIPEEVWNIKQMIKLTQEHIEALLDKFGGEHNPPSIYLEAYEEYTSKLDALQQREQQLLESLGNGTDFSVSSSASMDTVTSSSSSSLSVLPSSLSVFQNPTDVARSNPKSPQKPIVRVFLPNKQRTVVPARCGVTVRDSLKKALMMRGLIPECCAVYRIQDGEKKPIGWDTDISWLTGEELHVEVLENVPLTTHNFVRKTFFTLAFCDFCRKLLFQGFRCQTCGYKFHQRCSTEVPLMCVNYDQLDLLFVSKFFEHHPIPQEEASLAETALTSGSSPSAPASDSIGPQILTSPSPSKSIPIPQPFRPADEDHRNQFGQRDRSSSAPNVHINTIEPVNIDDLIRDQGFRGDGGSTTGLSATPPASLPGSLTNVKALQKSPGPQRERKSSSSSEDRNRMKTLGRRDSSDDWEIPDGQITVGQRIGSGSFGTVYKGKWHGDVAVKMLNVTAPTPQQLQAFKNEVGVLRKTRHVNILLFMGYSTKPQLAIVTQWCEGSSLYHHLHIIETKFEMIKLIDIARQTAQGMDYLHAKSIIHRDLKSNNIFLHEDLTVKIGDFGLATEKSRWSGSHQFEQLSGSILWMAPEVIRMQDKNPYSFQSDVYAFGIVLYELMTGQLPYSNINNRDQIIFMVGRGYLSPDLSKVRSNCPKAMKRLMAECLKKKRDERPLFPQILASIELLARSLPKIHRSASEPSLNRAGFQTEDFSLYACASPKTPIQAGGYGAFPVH

| Compound | pIC50 [1] | pIC50 [2] | further results |
| --- | --- | --- | --- |
| O=C(Nc1ccc(Sc2ccnc3[nH]c(=O)[nH]c23)cc1)Nc1cccc(C(F)(F)F)c1 | 5.85 | 7.55 | – |
| O=C(Cc1cccc(C(F)(F)F)c1)Nc1ccc(Oc2ccnc3[nH]c(=O)[nH]c23)cc1 | 5.30 | – | – |
| O=C(Nc1ccc(Oc2ccnc3[nH]c(=O)[nH]c23)cc1)Nc1ccccc1C(F)(F)F | < 4.00 | < 4.00 | – |
| O=C(Nc1ccc(Oc2ccnc3[nH]c(=O)[nH]c23)cc1)Nc1ccc(C(F)(F)F)cc1 | < 4.00 | < 4.00 | – |
| O=C(Nc1ccc(Oc2ccnc3[nH]c(=O)[nH]c23)cc1)Nc1cccc(C(F)(F)F)c1 | < 4.00 | 7.85 | – |
| O=C(Nc1ccccc1)Nc1ccc(Oc2ccnc3[nH]c(=O)[nH]c23)cc1 | < 4.00 | < 4.00 | – |
| O=C(Nc1ccc(Cl)cc1)Nc1ccc(Oc2ccnc3[nH]c(=O)[nH]c23)cc1 | < 4.00 | < 4.00 | – |
| O=C(Nc1ccc(Oc2ccnc3[nH]c(=O)[nH]c23)cc1)Nc1cc(F)cc(N2CCOCC2)c1 | 4.39 | 6.22 | – |
| O=c1[nH]c2nccc(Oc3ccc(NS(=O)(=O)c4ccc(C(F)(F)F)cc4)cc3)c2[nH]1 | 4.39 | < 4.00 | – |
| O=c1[nH]c2nccc(Oc3ccc(NS(=O)(=O)c4ccc(F)cc4)cc3)c2[nH]1 | – | < 4.00 | – |
| O=c1[nH]c2nccc(Oc3ccc(NS(=O)(=O)c4cccs4)cc3)c2[nH]1 | 4.81 | 4.91 | – |
| Cn1c(=O)[nH]c2nccc(Oc3ccc(NC(=O)Nc4ccc(Cl)c(C(F)(F)F)c4)cc3)c21 | 5.28 | 7.66 | metabolised at 10 µM [3]: 11%; Cmax [4]: 2450 nM; Cmax [5]: 1150 nM; AUC [6]: 3.26 µM·h; AUC [7]: 4.5 µM·h; half-life [8]: 155 min; half-life [9]: 583 min; clearance [10]: 0.283 mL/min; CL [11]: 0.006 L/h |
| O=C(Nc1ccc(Sc2ccnc3[nH]c(=O)[nH]c23)cc1)Nc1ccc(Cl)c(C(F)(F)F)c1 | 5.68 | 7.40 | – |
| O=C(Cc1ccccc1)Nc1ccc(Oc2ccnc3[nH]c(=O)[nH]c23)cc1 | 4.14 | 4.78 | – |
| O=c1[nH]c2nccc(Oc3ccc(NC(=S)Nc4ccc(Cl)c(C(F)(F)F)c4)cc3)c2[nH]1 | 4.97 | 7.07 | – |
| O=C(Nc1ccc(Oc2ccnc3[nH]c(=O)[nH]c23)cc1)c1ccccc1 | < 4.00 | < 4.00 | – |
| O=C(Nc1ccc(Oc2ccnc3[nH]c(=O)[nH]c23)cc1)c1ccc(Cl)c(C(F)(F)F)c1 | 5.09 | 4.80 | – |
| O=C(Cc1cccc(OC(F)(F)F)c1)Nc1ccc(Oc2ccnc3[nH]c(=O)[nH]c23)cc1 | 4.62 | – | – |
| O=c1[nH]c2nccc(Oc3ccc(NS(=O)(=O)c4ccc(Cl)c(C(F)(F)F)c4)cc3)c2[nH]1 | 4.39 | < 4.00 | – |
| O=c1[nH]c2nccc(Oc3ccc(NS(=O)(=O)c4ccc(Cl)cc4)cc3)c2[nH]1 | 4.41 | < 4.00 | – |
| Cn1c(=O)[nH]c2c(Oc3ccc(NC(=O)Nc4cccc(C(C)(C)C)c4)cc3)ccnc21 | 5.15 | 7.22 | – |
| O=C(Nc1ccc(Oc2ccnc3[nH]c(=O)[nH]c23)cc1)c1cccc(Br)c1 | 4.74 | 4.85 | – |

| Compound | pIC50 [1] | pIC50 [2] | further results |
| --- | --- | --- | --- |
| O=C(Nc1ccc(Oc2ccnc3[nH]c(=O)[nH]c23)cc1)c1cccc(OC(F)(F)F)c1 | < 4.00 | < 4.00 | – |
| O=C(Nc1ccc(Oc2ccnc3[nH]c(=O)[nH]c23)cc1)c1cc(F)cc(N2CCOCC2)c1 | 4.36 | < 4.00 | – |
| O=C(Nc1ccc(Oc2ccnc3[nH]c(=O)[nH]c23)cc1)Nc1cccc(OC(F)(F)F)c1 | < 4.00 | 7.68 | – |
| COc1ccc(C(F)(F)F)cc1NC(=O)Nc1ccc(Oc2ccnc3[nH]c(=O)[nH]c23)cc1 | 5.38 | 7.92 | – |
| COc1cc(Cl)c(C(F)(F)F)cc1NC(=O)Nc1ccc(Oc2ccnc3[nH]c(=O)[nH]c23)cc1 | 5.80 | 7.57 | metabolised at 10 µM [3]: 8% |
| O=C(Nc1ccc(Oc2ccnc3[nH]c(=O)[nH]c23)cc1)Nc1cc(C(F)(F)F)ccc1F | 5.48 | 7.28 | – |
| Cn1c(=O)[nH]c2nccc(Oc3ccc(NC(=O)Nc4cccc(C(C)(C)C)c4)cc3)c21 | 5.55 | 6.79 | – |
| Cn1c(=O)n(C)c2c(Oc3ccc(NC(=O)Nc4ccc(Cl)c(C(F)(F)F)c4)cc3)ccnc21 | 5.32 | 7.21 | – |
| O=C(Nc1ccc(Sc2ccnc3[nH]c(=O)[nH]c23)cc1)Nc1cc(C(F)(F)F)ccc1F | 5.89 | 7.54 | – |
| O=C(Nc1ccc(Oc2ccnc3[nH]c(=O)[nH]c23)cc1)Nc1ccc(Cl)c(C(F)(F)F)c1 | 5.38 | 7.64 | metabolised at 10 µM [3]: 0%; Cmax [4]: 1060 nM; Cmax [5]: 207 nM; AUC [6]: 0.718 µM·h; AUC [7]: 0.468 µM·h; half-life [8]: 48 min; half-life [9]: 74.4 min; clearance [10]: 1.95 mL/min; CL [11]: 0.16 L/h |
| O=C(Nc1ccc(Oc2ccnc3[nH]c(=O)[nH]c23)cc1)Nc1cc(Cl)cc(C(F)(F)F)c1 | 4.89 | 7.00 | – |
| O=C(Nc1ccc(Oc2ccnc3[nH]c(=O)[nH]c23)cc1)Nc1cccc(F)c1 | 4.86 | 5.55 | – |
| O=c1[nH]c2nccc(Oc3ccc(NS(=O)(=O)c4ccccc4F)cc3)c2[nH]1 | 4.21 | 4.49 | – |
| O=C(Nc1ccc(Oc2ccnc3[nH]c(=O)[nH]c23)cc1)Nc1cc(C(F)(F)F)ccc1N1CCOCC1 | 5.28 | 6.07 | – |
| CCn1c(=O)n(CC)c2c(Oc3ccc(NC(=O)Nc4ccc(Cl)c(C(F)(F)F)c4)cc3)ccnc21 | 4.66 | 6.52 | – |
| O=c1[nH]c2nccc(Oc3ccc(NS(=O)(=O)c4ccccc4)cc3)c2[nH]1 | 4.20 | 6.07 | metabolised at 10 µM [3]: 5% |
| COc1cccc(CC(=O)Nc2ccc(Oc3ccnc4[nH]c(=O)[nH]c34)cc2)c1 | 4.40 | – | – |
| O=C(Cc1cc(F)cc(F)c1)Nc1ccc(Oc2ccnc3[nH]c(=O)[nH]c23)cc1 | 4.54 | < 4.00 | – |
| Cn1c(=O)[nH]c2c(Oc3ccc(NC(=O)Nc4ccc(Cl)c(C(F)(F)F)c4)cc3)ccnc21 | 5.43 | 7.35 | Cmax [12]: 3.23 µM; Cmax [13]: 8.08 µM; AUC [14]: 16.4 µM·h; AUC [15]: 9.46 µM·h; half-life [16]: 283 min; half-life [17]: 261 min; clearance [18]: 0.833 mL/min; CL [19]: 0.009 L/h |
| Cn1c(=O)[nH]c2c(Oc3ccc(NC(=O)Nc4cc(C(F)(F)F)ccc4F)cc3)ccnc21 | 5.71 | 7.34 | – |
| O=C(Nc1ccc(Oc2ccnc3[nH]c(=O)[nH]c23)cc1)c1cccc(C(F)(F)F)c1 | 4.66 | 4.76 | – |
| CNC(=O)c1cc(Oc2ccc(NC(=O)Nc3ccc(Cl)c(C(F)(F)F)c3)cc2)ccn1 [SORAFENIB] | 5.30 | – | – |
